Assays:
[1] = system: GLUT4 (glucose transporter type 4); assay: Promotion of GLUT4 membrane translocation in L6-GLUT4myc; assay type: cell-based, rat; settings: HPH-15 10 μM (1/200th of metformin 2 mM; insulin 100 nM), 24 hours
Protocol: GLUT4 (glucose transporter type 4) is involved in the uptake of glucose into cells. Thus, the relationship between HPH-15 and the membrane translocation of GLUT4 was examined using the myotube cell model L6-GLUT4myc.
The myotube cell model L6-GLUT4myc cells used in Example 1 were seeded onto a 24-well plate (1×10^5 cells/well, […] of culture liquid) and cultured overnight. Then, a DMSO solution (1%) containing HPH-15 (final concentration: 10 μM), metformin (final concentration: 2 mM), or insulin (final concentration: 100 nM) was added to the medium, and the cells were further cultured for 24 hours. As a control, only DMSO solution (1%) was added, and the cells were cultured for 24 hours in the same manner. Next, each cell was fixed for 20 minutes with a 3% paraformaldehyde solution (Tokyo Chemical Industry Co., Ltd.). The reaction was stopped with an 1% glycine solution (Merck KGaA), and blocking was performed for 15 minutes using a PBS solution containing 5% goat serum (FUJIFILM Wako Pure Chemical Corp.). […] Detection was performed using OPD reagent (o-phenylenediamine dihydrochloride: FUJIFILM Wako Pure Chemical Corp.), and the amount of GLUT4 was evaluated by measuring absorbance (492 nm).

[2] = system: liver cell model HepG2 cells; assay: Neutral fat accumulation (Oil Red O) in presence of glucose; assay type: cell-based, human; settings: HPH-15 50 μM vs metformin 2 mM, glucose 100 mM, 24 hours
Protocol: Many patients with type 2 diabetes have fat accumulation in the visceral organs.
The liver cell model HepG2 cells used in Example 1 were seeded onto a 24-well plate (1×10^5 cells/well, […] of culture liquid) and cultured overnight. Then, a DMSO solution (1%) containing HPH-15 (final concentration: 50 μM) or metformin (final concentration: 2 mM) was added to the medium, and the cells were further cultured for 24 hours. As a control, only DMSO solution (1%) was added, and the cells were cultured for 24 hours in the same manner. Next, glucose (100 mM) was added to the medium, and the cells were further cultured for 24 hours. Then, the cells were fixed using 4% paraformaldehyde for 10 minutes. The fixed cells were added with an Oil Red O staining solution (Nacalai Tesque, Inc.) and shaken for 15 minutes. After washing with a 60% aqueous isopropanol solution, cell images were observed using a microscope. Further, the amount of neutral fat in the cells was determined by dissolving the stained cells in 100% isopropanol and measuring the absorbance (492 nm).

[3] = system: myotube cell model L6-GLUT4myc; assay: Cytotoxicity (MTT reagent); assay type: cell-based, rat; settings: HPH-15 1 μM, 10 μM or 50 μM, 24 hours
Protocol: It was examined whether using HPH-15 as a drug caused any cytotoxicity.
The myotube cell model L6-GLUT4myc, the liver cell model HepG2 cells, and the adipocyte model 3T3-L1 used in Example 1 were each seeded onto a 24-well plate (1×10^5 cells/well, […] of culture liquid) and cultured overnight. Then, a DMSO solution (1%) containing HPH-15 (final concentration: 1 μM, 10 μM or 50 μM) was added to the medium, and the cells were further cultured for 24 hours. As a control, only DMSO solution (1%) was added, and the cells were cultured for 24 hours in the same manner. Next, […] of MTT reagent (3-(4,5-dimethyl-2-thiazolyl)-2,5-diphenyl-2H-tetrazolium bromide: 1.1 mg/mL: Dojindo Laboratories) was added to each well, and the cells were further cultured for 4 hours. After collecting the precipitated crystals, the supernatant was removed and DMSO ([…]) was added to completely dissolve the crystals. Cytotoxicity was evaluated by measuring the absorbance (550 nm) of the solution and determining the number of viable cells.

[4] = Body weight during administration in mouse; assay type: in vivo; settings: HPH-15 10 mg/kg or 100 mg/kg orally once a day for 28 days; high-fat diet
Protocol: Four-week-old […] mice (CLEA Japan, Inc.) were fed a high-fat diet HFD (CLEA Japan, Inc.) for two months to prepare high-fat diet-induced obesity model mice. Then, HPH-15 (10 mg/kg or 100 mg/kg, […]) dissolved in olive oil (Kenei Pharmaceutical Co., Ltd.) or metformin (300 mg/kg, […]) was orally administered once a day for 28 days. Olive oil alone was administered as a control. Body weight, random blood glucose levels, and fasting blood glucose levels were measured every 7 days using a blood glucose meter Glutest Aqua (Sanwa Kagaku Kenkyusho Co., Ltd.). Fasting blood glucose levels were measured after 12-hour fasting. Note that, during the drug administration period, the mice were fed the high-fat diet HFD. The results of random blood glucose levels (mg/dl) are shown in FIG. 7A, and the results of fasting blood glucose levels (mg/dl) are shown in FIG. 7B.

[5] = system: AMPK; assay: Activation of p-AMPK in mouse tissue (Western blotting); assay type: in vivo
Protocol: High-fat diet-induced obesity model mice were prepared in the same manner as in Example 7. Then, HPH-15 (10 mg/kg or 100 mg/kg, […]) dissolved in olive oil or metformin (300 mg/kg, […]) was orally administered once a day for 28 days. Olive oil alone was administered as a control. After 28 days of administration of each, equal amounts (50 mg) of tissue pieces were collected from the liver, subcutaneous fat, and muscle tissues of the high-fat diet-induced obesity model mice, transferred to 1.5 mL Eppendorf tubes, and washed twice with PBS. After washing, the tissue pieces were transferred to BIOMASHER II, […] of RIPA buffer was added, and the tissue pieces were homogenized on ice. After homogenization, the tissue pieces were centrifuged (10,000 rpm, 4° C., 5 min) and the supernatant was obtained as a protein solution. The concentration of the proteins thus obtained was corrected based on the protein concentration measured by the BCA method using bicinchoninic acid (BCA), thereby preparing samples for Western blotting. Western blotting was performed in the same manner as in Example 1 described above, and the amount of p-AMPK/AMPK was calculated.

[6] = HPH-15 10 or 100 mg/kg orally 28 days

## CC(C)(C)SCCNC(=S)c1cccc(C(=S)NCCSC(C)(C)C)n1 [HPH-15]
[1]
  amount of GLUT4 localized in the membrane: promoted membrane translocation of GLUT4 to the same extent as metformin or insulin
[2]
  neutral fat accumulation: had an inhibitory effect on neutral fat accumulation in the presence of high glucose in the same manner as metformin
[3]
  cytotoxicity (number of viable cells): no cytotoxicity was confirmed
[4]
  changes in body weight during the test period: no significant differences were observed
[5]; [6]
  p-AMPK/AMPK in the liver: increased
  p-AMPK/AMPK in the muscle: increased
  p-AMPK/AMPK in the subcutaneous fat: increased
[5]; HPH-15 10 or 100 mg/kg vs metformin 300 mg/kg, orally 28 days
  AMPK activation in the subcutaneous fat as compared to metformin: twice or more as compared to metformin

Reference: patent publication US20260000655A1, “PHARMACEUTICAL COMPOSITION FOR USE IN PREVENTION OR TREATMENT OF LIFESTYLE-RELATED DISEASE” (priority 2022, published 2026)
